According to patent publication US6951882B2, “Substituted 4-phenyl-[1,3]-dioxanes” (Janssen Pharmaceutica N.V., priority 2002, dated 2005):

Assays:
orexin-2 receptor = target: T1, orexin-2 receptor (Homo sapiens, UniProt O43614); experiment: Orexin radioligand binding assay (125I-orexin A, adherent recombinant cells); conditions: 125I-orexin A displacement, recombinant CHO-K1 or HEK-293 cells expressing the orexin receptor
T1 construct: expressed in transfected cells; host or cells: CHO-K1 (preferred) or HEK-293 recombinant clones
T1 sequence (O43614 1-444): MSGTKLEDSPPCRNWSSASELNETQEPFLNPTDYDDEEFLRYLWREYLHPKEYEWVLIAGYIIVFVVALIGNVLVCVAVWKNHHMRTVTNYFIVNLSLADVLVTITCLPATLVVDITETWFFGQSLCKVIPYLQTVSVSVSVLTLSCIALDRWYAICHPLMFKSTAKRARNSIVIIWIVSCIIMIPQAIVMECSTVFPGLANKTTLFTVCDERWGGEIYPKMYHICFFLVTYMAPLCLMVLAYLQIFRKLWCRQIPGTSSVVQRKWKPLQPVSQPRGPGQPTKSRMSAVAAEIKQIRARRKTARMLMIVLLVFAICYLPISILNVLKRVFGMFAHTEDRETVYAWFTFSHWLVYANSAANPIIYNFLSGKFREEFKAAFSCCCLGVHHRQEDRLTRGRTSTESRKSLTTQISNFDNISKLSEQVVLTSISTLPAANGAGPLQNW
Experimental: The reaction was quenched with 100 μL of 10% w/v bovine serum albumin, then the products were pre-purified using Waters Maxi-Clean C18 cartridges (Alltech, San Jose, Calif.). The mobile phase for the reverse phase separations (pre-purification and gradient HPLC) was 0.1% TFA, and the eluent was 0.1% TFA in acetonitrile. After removing the acetonitrile from the Maxi-Clean cartridge eluent by lyophilization, the labeled compound was further purified by gradient HPLC using a Vydac (Hesperia, Calif.) analytical C18 HPLC column. A gradient of 2% acetonitrile/min was used and fractions were collected every 0.75 min at a flow rate of 1.5 mL/min.
Radioligand binding assays were performed in opaque, white 96-well tissue culture plates pretreated with poly-D-lysine (Bio-Coat plates, Becton Dickinson, Franklin Lakes, N.J.). Cells expressing the orexin receptor were seeded at 30,000 cells/well in 100 μL/well Ham's F12 with 10% heat inactivated fetal bovine serum, penicillin/streptomycin and 800 mg/L G418. […] In preparation for the binding assay, the cell culture medium was aspirated away, and the cells were gently washed with 100 μL-well binding buffer (Dulbecco's phosphate buffered saline containing 0.1% w/v bovine serum albumin). […] The assay was terminated by aspirating the liquid from the wells, washing the wells with iced binding buffer, aspirating the wells dry, adding 50 μL/well scintillation cocktail (MicroScint 40, Packard Biosciences, Meriden Conn.), and counting the plate(s) in a Packard TopCount scintillation counter. […] Data were analyzed using GraphPad Prizm software to calculate Ki values.

[1] = target: T2, orexin receptors in PFSK-1 cells (Homo sapiens, UniProt O43614); experiment: Intracellular calcium ion measurement (FLIPR, Fluo-3 AM) in PFSK-1 cells, antagonism of orexin agonist; assay type: cell-based
T2 construct: host or cells: PFSK-1
T2 sequence (O43614 1-444): T1 sequence (O43614 1-444)
Experimental: PFSK-1 cells were obtained from the American Type Culture Collection (CRL-2060; Manassas, Va.) and cultured as described by Fults et al. (J. Neuropathology Exp. Neurology, 1992, 51 (3):272-280). Cells were grown on 10 or 15 cm tissue culture dishes (Corning Inc., Corning, N.Y.) in RPMI medium 1640 containing 25 mM Hepes and L-glutamine (Gibco/InVitrogen, Carlsbad, Calif.) supplemented with 10% fetal bovine serum (HyClone, Logan, Utah), 50 u/mL penicillin G, and 50 u/mL streptomycin sulphate. Cells grown on 10 dishes were grown in 10 mL complete medium, and cells grown on 15 cm dishes were grown in 30 mL complete medium. Cells were passed every 3 to 5 days at a 1:5 dilution by aspirating away the medium, adding 2 mL/dish Gibco/Invitrogen Trypsin-EDTA solution, aspirating away the solution, incubating at room temperature 5 min, and dispersing the cells into fresh plates using fresh complete medium. Cells were then maintained in incubators set to maintain 37° C. and 5% CO2.
Agonist binding of orexin receptors elevates the intracellular free calcium ion concentration through the activation of a Gq protein and the opening of voltage-activated plasmalemmal calcium channels (see: A. N. Van Den Pol et al. J. Neurosci., 1998, 18(19):7962-7971). This effect was monitored using the fluorescent Ca^++ indicator Fluo-3 AM (TefLabs, Austin, Tex.) and the Molecular Devices (Sunnyvale, Calif.) FLIPR instrument.
PFSK-1 cells were removed from confluent tissue culture dishes with trypsin-EDTA as described above and plated in 96-well Packard Viewplates (Meriden, Conn.) at 50,000 cells/well in 100 μL/well complete medium. The next day the cells, which adhered to the Viewplates and grew to confluency, were loaded with the fluorescent dye. […] Test compounds were added to the wells in an isotonic, pH-neutral vehicle, such as Dulbecco's phosphate-buffered saline, and changes in intracellular calcium concentrations were measured using the FLIPR instrument.
The compounds were delivered to the test wells, and the compounds and the cells were incubated to allow binding. […] The control column for the antagonist screen included positive and negative controls to indicate the fluorescence of a full agonist response and the baseline.
Antagonism was analyzed by calculating KB and pKB values for compounds found to inhibit increases in intracellular Ca^++ concentrations of PFSK-1 cells. This was accomplished by determining the EC50 of orexin B and comparing the IC50 values determined from dilutions of antagonist compound(s), all on a single 96-well Viewplate of PFSK-1 cells loaded with Fluo-3 AM. […] The KB is then determined after Y.-C. […]

Ki (orexin-2 receptor) | Kb [1] | SMILES
6000 nM |  | CC1(C)OC[C@H](NC(=O)Nc2ccc(F)cc2F)[C@H](c2ccccc2)O1 [Example 45, 1-(2,4-Difluoro-phenyl)-3-((4S,5S)-2,2-dimethyl-4-phenyl-[1,3]dioxan-5-yl)-urea]
2600 nM |  | CC1(c2ccccc2)OC[C@H](NC(=O)Nc2ccccc2Br)[C@H](c2ccccc2)O1 (stereo partly drawn) [Example 28, 1-(2-Bromo-phenyl)-3-((4S,5S)-2-methyl-2,4-diphenyl-[1,3]dioxan-5-yl)-urea]
280 nM |  | CC1(C)OC[C@H](/N=C(\S)Nc2ccc(Cl)cc2Cl)[C@H](c2ccccc2)O1 [Example 22, 1-(2,4-Dichloro-phenyl)-3-((4S,5S)-2,2-dimethyl-4-phenyl-[1,3]dioxan-5-yl)-thiourea]
1400 nM |  | CC1(C)OC[C@H](NC(=O)Nc2ccc(Br)cc2)[C@H](c2ccccc2)O1 [Example 36, 1-(4-Bromo-phenyl)-3-((4S,5S)-2,2-dimethyl-4-phenyl-[1,3]dioxan-5-yl)-urea]

Continued, compound first:

SMILES | Ki (orexin-2 receptor) | Kb [1]
CC1(C)OC[C@H](NC(=O)Nc2ccc(Br)cc2Br)[C@H](c2ccccc2)O1 [Example 4, 1-(2,4-Dibromo-phenyl)-3-((4S,5S)-2,2-dimethyl-4-phenyl-[1,3]dioxan-5-yl)-urea] | 10 nM | 5.01 nM
Cc1ccc(NC(=O)N[C@H]2COC(C)(C)O[C@H]2c2ccccc2)c(Br)c1 [Example 12, 1-(2-Bromo-4-methyl-phenyl)-3-((4S,5S)-2,2-dimethyl-4-phenyl-[1,3]dioxan-5-yl)-urea] | 5 nM | 6.31 nM
CC1(C)OC[C@H](NC(=O)Nc2ccc(Br)cc2Cl)[C@H](c2ccccc2)O1 [Example 1, 1-(4-Bromo-2-chloro-phenyl)-3-((4S,5S)-2,2-dimethyl-4-phenyl-[1,3]dioxan-5-yl)-urea] | 9 nM | 25.1 nM
CC1(C)OC[C@H](NC(=O)Nc2ccccc2-c2ccccc2)[C@H](c2ccccc2)O1 [Example 16, 1-Biphenyl-2-yl-3-((4S,5S)-2,2-dimethyl-4-phenyl-[1,3]dioxan-5-yl)-urea] | 56 nM | 
CC1(C)OC[C@H](NC(=O)Nc2ccc(Cl)cc2Cl)[C@H](c2ccccc2)O1 [Example 5, 1-(2,4-Dichloro-phenyl)-3-((4S,5S)-2,2-dimethyl-4-phenyl-[1,3]dioxan-5-yl)-urea] | 15 nM | 25.1 nM
